# Assay: passive permeability, PAMPA, ADME assay (AID 1508612)
# Conditions: pH 7.4, 30.0 min, 50.0 µM
row,Papp,SMILES
1,> 1000 ×10⁻⁶ cm/s,C=C[C@@]1(C)C[C@H](OC(=O)CSC(C)(C)CNC(=O)[C@@H](N)C(C)C)[C@@]2(C)C(C)CC[C@@]3(CCC(=O)[C@@H]32)[C@H](C)[C@H]1O (some centres not stated)
2,13.9 ×10⁻⁶ cm/s,CN(C)c1cccc(-c2c3c(=O)n(-c4ccccc4Cl)[nH]c3cc(=O)n2C)c1
3,525 ×10⁻⁶ cm/s,CCc1ccc(NC(=O)c2cc3ncccn3n2)cc1
4,322 ×10⁻⁶ cm/s,CCc1cccc(NC(=O)CSc2nc3ccccc3nc2N2CCCCC2)c1
5,54.9 ×10⁻⁶ cm/s,Cc1ccc(S(=O)(=O)Nc2cnccc2C(=O)Nc2nc(-c3cnn(C)c3)cs2)cc1
6,> 1000 ×10⁻⁶ cm/s,Cn1c(CN2CCCC2)nc2cc(NC(=O)COc3ccc(Cl)cc3)ccc21
7,246 ×10⁻⁶ cm/s,Cc1ccc(-c2nnc(N3CCC(C(N)=O)CC3)s2)cc1
8,> 1000 ×10⁻⁶ cm/s,CCN1C(=O)c2ccccc2S(=O)c2ccc(NC(=O)Cc3ccc(OC)cc3)cc21 (configuration not stated)
9,> 1000 ×10⁻⁶ cm/s,Cc1ccc(N2CCC(CNc3nc(-c4ccccc4C(C)C)ncc3F)CC2)cn1
10,8.29 ×10⁻⁶ cm/s,Cc1ccc(S(=O)(=O)Nc2cnccc2C(=O)Nc2ccc(-n3cncn3)cc2)cc1
11,> 1000 ×10⁻⁶ cm/s,CC(C)(C)c1ccc(-c2ccc(=O)n(CC(=O)NCCc3ccccc3)n2)cc1
12,2.87 ×10⁻⁶ cm/s,Cc1cnc(-c2ccccc2C2COC2)nc1NCc1ccc(-c2cccnc2)cc1
13,1.15 ×10⁻⁶ cm/s,O=S(=O)(Nc1nccs1)c1ccc(NCc2ccccc2O)cc1
14,38.5 ×10⁻⁶ cm/s,O=C(Nc1ccc(F)c(C(F)(F)F)c1)Nc1nnc(-c2ccncc2)s1
15,405 ×10⁻⁶ cm/s,CCn1c(C)c(C(C)=O)c(C)c1C(=O)Nc1cccc([S+](=O)([O-])N(C)C)c1
16,858 ×10⁻⁶ cm/s,C#C[C@]1(OC(C)=O)CC[C@H]2[C@@H]3CCC4=C/C(=N/O)CC[C@@H]4[C@H]3CC[C@@]21CC
17,196 ×10⁻⁶ cm/s,Fc1ccc(N2CCCN(CC3[C@H]4CNC[C@@H]34)CC2)cc1 (some centres not stated)
18,4 ×10⁻⁶ cm/s,O=C(O)c1ccnc2cc(-c3nc4ccccc4n3CCN3CCCCC3)sc12
19,16.9 ×10⁻⁶ cm/s,O=C(Cc1ccc2ccccc2c1)Nc1ccc(S(=O)(=O)Nc2nccs2)cc1
20,718 ×10⁻⁶ cm/s,O=C1CCCC2=C1C(c1[nH]ncc1Cl)N=C(Nc1nc3ccccc3o1)N2 (configuration not stated)
21,> 1000 ×10⁻⁶ cm/s,COC(=O)CNC(=O)c1nc(-c2ccc(Cl)nc2)c2ccccn12
22,5.16 ×10⁻⁶ cm/s,COc1cccc(O)c1CNc1ccc(S(=O)(=O)Nc2nccs2)cc1
23,23.1 ×10⁻⁶ cm/s,CC1=C(C(=O)Nc2nnc(-c3ccccc3)s2)C(c2nn(C)cc2Cl)N=C(Nc2nc3ccccc3o2)N1 (configuration not stated)
24,93.9 ×10⁻⁶ cm/s,COc1cccc(CNC(=O)c2c(OC)cc(=O)n3c2CCN(C(=O)c2ccc(C)cc2C)CC3)c1

row,Papp,SMILES
1,672 ×10⁻⁶ cm/s,CC(C)c1ccccc1-c1ncc(F)c(NC(C)(C)c2ccc(-n3ccnn3)cc2)n1
2,791 ×10⁻⁶ cm/s,Cc1ccc(-c2nc3ccccc3o2)cc1NC(=O)COc1ccccc1
3,67.1 ×10⁻⁶ cm/s,COc1ccc(Nc2ncc(C(=O)Nc3cccc(Cl)c3)c3ccccc23)cc1
4,> 1000 ×10⁻⁶ cm/s,COc1ccnc(NC(=S)N2CCN(c3cccc(C(F)(F)F)n3)CC2)c1
5,6.74 ×10⁻⁶ cm/s,CCN(c1cc(C#CCN2CCOCC2)cc(C(=O)NCc2c(C)cc(C)[nH]c2=O)c1C)C1CCC(N(C)CCOC)CC1 (configuration not stated)
6,484 ×10⁻⁶ cm/s,O=C(C1CCN(c2nc(-c3ccc(Br)cc3)cs2)CC1)N1CCNCC1
7,< 1 ×10⁻⁶ cm/s,O=c1[nH]c(C2CCN(CC3CCCCC3)CC2)nn1Cc1ccccc1
8,> 1000 ×10⁻⁶ cm/s,Cc1cnc(-c2ccccc2C2CC2)nc1NCc1ccc(-c2cccnc2)cc1
9,313 ×10⁻⁶ cm/s,COc1cccc(CNc2ccc(S(=O)(=O)Nc3nccs3)cc2)c1OC
10,46 ×10⁻⁶ cm/s,Cc1ccc(S(=O)(=O)Nc2cnccc2C(=O)Nc2nc(-c3ccccc3Cl)cs2)cc1
11,> 1000 ×10⁻⁶ cm/s,CCn1c(C(=O)N2CCCC(C(=O)NCCc3ccc(C)cc3)C2)cc2sccc21 (configuration not stated)
12,> 1000 ×10⁻⁶ cm/s,Cc1ccccc1C(C(=O)NC1CCCC1)N(C(=O)Cn1cnc2ccccc21)c1cccc(F)c1 (configuration not stated)
13,730 ×10⁻⁶ cm/s,Cc1cccc(Nc2nc(NCc3ccco3)c3ccccc3n2)c1
14,651 ×10⁻⁶ cm/s,O=C(Cc1ccc(Cl)c(Cl)c1)Nc1ccc([S+](=O)([O-])Nc2ccccn2)cc1
15,282 ×10⁻⁶ cm/s,Cc1cc(NS(=O)(=O)c2ccc(NC(=O)c3oc4ccccc4c3C)cc2)nc(C)n1
16,20.9 ×10⁻⁶ cm/s,O=C1CCCCc2cc(O)c(O)cc21
17,> 1000 ×10⁻⁶ cm/s,COc1ccc2[nH]c(C[C@@H]3C[C@@H](C(C)C)[C@H](CNCc4ccccc4O)C=C3C)nc2n1
18,342 ×10⁻⁶ cm/s,COc1cccc(CNc2ccc(S(=O)(=O)Nc3nccs3)cc2)c1
19,593 ×10⁻⁶ cm/s,Cc1cc(C)nc(NC(=S)N2CCN(c3cccc(C(F)(F)F)c3)CC2)c1
20,18.9 ×10⁻⁶ cm/s,O=[S+]([O-])(Nc1nccs1)c1ccc(NCc2cccc3c2NCC3)cc1
21,855 ×10⁻⁶ cm/s,O=C(CCCCn1c(=O)[nH]c2ccsc2c1=O)N1CCN(c2cccc(Cl)c2)CC1
22,227 ×10⁻⁶ cm/s,CCc1ccc(NC(=O)c2[nH]c(C)c(C(C)=O)c2C)cc1[S+](=O)([O-])N1CCCCCC1
23,< 1 ×10⁻⁶ cm/s,Cc1ccc(S(=O)(=O)Nc2cccc(C(=O)Nc3nc(-c4ccccc4)cs3)c2Cl)cc1
24,23.2 ×10⁻⁶ cm/s,NC(=O)C1CCN(c2nc(-c3cccnc3)cs2)CC1

row,Papp,SMILES
1,> 1000 ×10⁻⁶ cm/s,CC(=O)c1c(C)[nH]c(C(=O)Nc2cccc(S(=O)(=O)N3CCCCC3)c2)c1C
2,338 ×10⁻⁶ cm/s,Cn1nnnc1Sc1ncnc2scc(-c3ccccc3F)c12
3,< 1 ×10⁻⁶ cm/s,CC(C)CCNC(=O)[C@H](CC(C)C)NC(=O)[C@H]1O[C@@H]1C(=O)O
4,433 ×10⁻⁶ cm/s,COC(=O)Nc1nc2ccc(SC(C)C)cc2[nH]1
5,8.1 ×10⁻⁶ cm/s,CCOc1ccccc1C(=O)Nc1cccnc1C(=O)Nc1cccc(S(=O)(=O)C(F)(F)F)c1
6,< 1 ×10⁻⁶ cm/s,Brc1ccc(-c2csc(N3CCOCC3)n2)cc1
7,2.48 ×10⁻⁶ cm/s,Cc1ccc(S(=O)(=O)Nc2cnccc2C(=O)Nc2nc(-c3cc4ccccc4o3)cs2)cc1
8,> 1000 ×10⁻⁶ cm/s,CC(C)c1ccccc1-c1ncc(F)c(NCc2ccc(-c3cccnc3)s2)n1
9,120 ×10⁻⁶ cm/s,CNC(=O)c1ccc(-c2cnc3cnc(C(=O)N(C)c4ccc(Cl)cc4)cn23)cc1
10,508 ×10⁻⁶ cm/s,CSc1ncc(Cl)c(C(=O)Nc2c(C)cccc2C)n1
11,> 1000 ×10⁻⁶ cm/s,C[C@H]1CN(C(=O)Nc2ccc(F)cc2)C[C@@H]1c1nc(-c2ccccc2)no1
12,410 ×10⁻⁶ cm/s,Cc1noc(C)c1-c1ccc(Nc2nc(-c3ccncc3)nc3ccccc23)cc1F
13,66.3 ×10⁻⁶ cm/s,Cc1cccc2c1NC(=O)/C2=C/c1cc(Cl)c(O)c(Cl)c1
14,16.1 ×10⁻⁶ cm/s,O=C(NCC1CCOCC1)C1CC(=O)N(c2n[nH]c3cc(Br)ccc23)C1 (configuration not stated)
15,907 ×10⁻⁶ cm/s,C[C@H]1CN(C(=O)c2nn(C)c3ccccc23)C[C@@H]1c1nc(-c2ccncc2)no1
16,834 ×10⁻⁶ cm/s,Fc1ccc(-c2csc3ncnc(Sc4nnnn4C4CC4)c23)cc1
17,67.7 ×10⁻⁶ cm/s,CCc1oc2ccccc2c1C(=O)c1cc(I)c(O)c(I)c1
18,426 ×10⁻⁶ cm/s,Cc1nn(CCc2nc(-c3ccccc3)cs2)c2[nH]c(=O)cc(C(F)(F)F)c12
19,532 ×10⁻⁶ cm/s,Cc1nn2c(c1-c1ccccc1-c1ccccc1)N(CCC(C)C)CCC2
20,584 ×10⁻⁶ cm/s,CC1CCN(S(=O)(=O)c2ccc3c(c2)C(C)(C)C(=O)N3CC(=O)NCc2ccco2)CC1
21,253 ×10⁻⁶ cm/s,CCN(CC)S(=O)(=O)c1ccc(N2CCCC2)c(NS(=O)(=O)c2ccc(C)cc2)c1
22,892 ×10⁻⁶ cm/s,CCCCOc1ccc(C(=O)N2CCC(c3n[nH]c(=O)n3-c3ccc(C)cc3)CC2)cc1
23,> 1000 ×10⁻⁶ cm/s,CCCCn1cc2c(c1-c1ccc(Br)cc1)c(=O)n(C)c(=O)n2C
24,82.5 ×10⁻⁶ cm/s,Cc1ccc(C(=O)Nc2ccc3oc(-c4cccnc4)nc3c2)cc1[N+](=O)[O-]

row,Papp,SMILES
1,> 1000 ×10⁻⁶ cm/s,Cc1cccc(C)c1NC(=O)c1nc(SC(C)C)ncc1Cl
2,387 ×10⁻⁶ cm/s,COc1ccccc1S(=O)(=O)Nc1cnccc1C(=O)Nc1nc(-c2ccccc2)cs1
3,15.4 ×10⁻⁶ cm/s,CNC(=O)C1CCN(C(=O)c2ccc(-c3ncc4cnc(-c5ccccc5)cn34)cc2)CC1
4,> 1000 ×10⁻⁶ cm/s,CCOC(=O)C1CCN(c2ncc(-c3ccc4c(c3)OCCCO4)s2)CC1
5,3.48 ×10⁻⁶ cm/s,Cc1cnc(-c2ccccc2C2COC2)nc1NCC1CCN(c2cccnc2)CC1
6,514 ×10⁻⁶ cm/s,COc1ccc(NC(=O)c2cccnc2)cc1S(=O)(=O)Nc1ccc(Br)cc1
7,> 1000 ×10⁻⁶ cm/s,Oc1ccc(CN2CC(CNc3ccccc3)C3(C2)CN(c2ccccc2)C3)cc1 (configuration not stated)
8,450 ×10⁻⁶ cm/s,N#Cc1cccc(-c2csc(N3CCC(C(N)=O)CC3)n2)c1
9,79.5 ×10⁻⁶ cm/s,Oc1ccc(NCc2ccccc2OCc2ccccc2Cl)cc1
10,16.5 ×10⁻⁶ cm/s,Cc1nc2ccc(C(=O)N3CCC4(CC3)CC(=O)c3c(cnn3C(C)C)C4)cc2[nH]1
11,877 ×10⁻⁶ cm/s,Cc1ccc(C(N)=O)cc1Nc1nccc(-c2cn(C(C)C)c3cnccc23)n1
12,278 ×10⁻⁶ cm/s,COc1ccccc1-c1nnc2sc(-c3ccc(N(C)C)cc3)nn12
13,15.1 ×10⁻⁶ cm/s,COCCOc1cnc2ccn([C@H](C)c3nnc4c(F)cc(-c5cnn(C)c5)cn34)c(=O)c2c1
14,150 ×10⁻⁶ cm/s,Oc1ccc(CNc2ccc(C(F)(F)F)cc2F)c2cccnc12
15,1000 ×10⁻⁶ cm/s,Cc1ccc2oc(NC3=NC(c4[nH]ncc4Cl)C4=C(CCCC4=O)N3)nc2c1 (configuration not stated)
16,99 ×10⁻⁶ cm/s,CCOc1ccc(S(=O)(=O)NCc2cccnc2)cc1NC(=O)c1ccccc1F
17,860 ×10⁻⁶ cm/s,Cc1cccc(S(=O)(=O)Nc2cnccc2C(=O)Nc2nc(-c3ccccc3)cs2)c1
18,543 ×10⁻⁶ cm/s,Cc1ccc2oc(NC3=NC4(CCCC4)C4=C(CCCC4=O)N3)nc2c1
19,> 1000 ×10⁻⁶ cm/s,CCOC(=O)c1ccc(NC2CCCCC2)c(N)c1
20,12.3 ×10⁻⁶ cm/s,O=C(O)c1ccccc1-c1ccc(/C=c2\sc3nc4cc(Br)cnc4n3c2=O)o1
21,709 ×10⁻⁶ cm/s,O=C(O)c1c(Sc2ccccc2)c2cc(Cl)ccc2n1Cc1ccc(Cl)cc1
22,> 1000 ×10⁻⁶ cm/s,CCc1ccc(OC(C)C(=O)N2CCC(c3nc4ccccc4o3)CC2)cc1 (configuration not stated)
23,76.2 ×10⁻⁶ cm/s,COc1ccccc1-c1[nH]nc2ncc(-c3ccc(C)cc3)nc12

row,SMILES,Papp
1,N#Cc1cccc(NC(=O)c2sc3nc4c(cc3c2N)N2CCC4CC2)c1,917 ×10⁻⁶ cm/s
2,CCOc1ccc(CCNC(=O)c2cc3ncccc3n2Cc2cccc(C)c2)cc1OCC,> 1000 ×10⁻⁶ cm/s
3,COc1ccc(C[C@@H]2C(=O)N[C@H](C)C(=O)N(C)[C@@H]3C(=O)N(C)[C@@H](Cc4ccc(O)c(c4)Oc4ccc(cc4)[C@H]3O)C(=O)N[C@@H](C)C(=O)N[C@H](C)C(=O)N2C)cc1,4.5 ×10⁻⁶ cm/s
4,CCOC(=O)c1ccc(NC(=O)CSc2nc3c(cc2C#N)N2CCC3CC2)cc1,422 ×10⁻⁶ cm/s
5,CC[C@H]1C=CC=CC[C@@H](C)[C@H](O)[C@@](C)(O)C(=O)[C@@H](C)[C@H](O)[C@@H](C)C(=O)[C@@H](C)[C@H](O)[C@@H](C)C=CC(=O)O[C@@H]2[C@@H](C)[C@H](CC1)O[C@]1(CC[C@H](C)[C@H](C[C@@H](C)O)O1)[C@H]2C,< 1 ×10⁻⁶ cm/s
6,Cc1cc(SCc2sc(-c3ccc(C(F)(F)F)c(F)c3)nc2C)ccc1OCC(=O)O,417 ×10⁻⁶ cm/s
7,CCCCOC(=O)c1ccnc2cc(C(OCCN3CCCCC3)c3ccccc3Cl)sc12 (configuration not stated),828 ×10⁻⁶ cm/s

# Reference: PubChem BioAssay AID1508612
